Reference: ChEMBL document CHEMBL3046875, “Potential cytotoxic and apoptosis inducing agents: synthesis and evaluation of methoxy-substituted chalcones against human lung and cervical cancers” (Med Chem Res, 2013)

Legend:
[1] = system: HeLa; assay: Cell cycle arrest in Homo sapiens (human) HeLa cells assessed as accumulation at G0/G1 phase at IC50 after 48 hr by propidium iodide staining-based flow cytometric analysis (reference value: 63.3%); assay type: functional
[2] = system: HeLa; assay: Cell cycle arrest in Homo sapiens (human) HeLa cells assessed as accumulation at sub G0 phase at IC50 after 48 hr by propidium iodide staining-based flow cytometric analysis (reference value: 0.88%); assay type: functional
[3] = system: HeLa; assay: Cell cycle arrest in Homo sapiens (human) HeLa cells assessed as accumulation at G2/M phase at IC50 after 48 hr by propidium iodide staining-based flow cytometric analysis (reference value: 22.68%); assay type: functional
[4] = system: A549; assay: Cell cycle arrest in Homo sapiens (human) A549 cells assessed as accumulation at G0/G1 phase at IC50 after 48 hr by propidium iodide staining-based flow cytometric analysis (reference value: 74.9%); assay type: functional
[5] = system: A549; assay: Cell cycle arrest in Homo sapiens (human) A549 cells assessed as accumulation at S phase at IC50 after 48 hr by propidium iodide staining-based flow cytometric analysis (reference value: 12.83%); assay type: functional
[6] = system: A549; assay: Cell cycle arrest in Homo sapiens (human) A549 cells assessed as accumulation at G2/M phase at IC50 after 48 hr by propidium iodide staining-based flow cytometric analysis (reference value: 11.03%); assay type: functional
[7] = system: HeLa; assay: Cytotoxicity against Homo sapiens (human) HeLa cells assessed as cell viability after 72 hr by MTT assay; assay type: functional, cell-based
[8] = system: A549; assay: Cell cycle arrest in Homo sapiens (human) A549 cells assessed as accumulation at sub G0 phase at IC50 after 48 hr by propidium iodide staining-based flow cytometric analysis (reference value: 1.37%); assay type: functional
[9] = system: A549; assay: Cytotoxicity against Homo sapiens (human) A549 cells assessed as cell viability after 72 hr by MTT assay; assay type: functional, cell-based; settings: A549, 72 h
[10] = system: HeLa; assay: Cell cycle arrest in Homo sapiens (human) HeLa cells assessed as accumulation at S phase at IC50 after 48 hr by propidium iodide staining-based flow cytometric analysis (reference value: 14.14%); assay type: functional
[11] = system: HCT-15; assay: Cytotoxicity against Homo sapiens (human) HCT15 cells assessed as cell viability after 72 hr by MTT assay; assay type: functional, cell-based; settings: HCT-15, 72 h
[12] = system: HeLa; assay: Cell cycle arrest in Homo sapiens (human) HeLa cells assessed as accumulation at S phase at 2 uM after 48 hr by propidium iodide staining-based flow cytometric analysis (reference value: 14.14%); assay type: functional
[13] = system: A549; assay: Cell cycle arrest in Homo sapiens (human) A549 cells assessed as accumulation at G2/M phase at 2 uM after 48 hr by propidium iodide staining-based flow cytometric analysis (reference value: 11.03%); assay type: functional
[14] = system: HeLa; assay: Cell cycle arrest in Homo sapiens (human) HeLa cells assessed as accumulation at G2/M phase at 2 uM after 48 hr by propidium iodide staining-based flow cytometric analysis (reference value: 22.68%); assay type: functional
[15] = system: A549; assay: Cell cycle arrest in Homo sapiens (human) A549 cells assessed as accumulation at sub G0 phase at 2 uM after 48 hr by propidium iodide staining-based flow cytometric analysis (reference value: 1.37%); assay type: functional
[16] = system: HeLa; assay: Cell cycle arrest in Homo sapiens (human) HeLa cells assessed as accumulation at sub G0 phase at 2 uM after 48 hr by propidium iodide staining-based flow cytometric analysis (reference value: 0.88%); assay type: functional
[17] = system: HeLa; assay: Cell cycle arrest in Homo sapiens (human) HeLa cells assessed as accumulation at G0/G1 phase at 2 uM after 48 hr by propidium iodide staining-based flow cytometric analysis (reference value: 63.3%); assay type: functional

SMILES: COc1cc(/C=C/C(=O)c2ccccc2F)cc(OC)c1
- Activity [1]: 70.2%
- Activity [2]: 9.11%
- Activity [3]: 26.68%
- Activity [4]: 2.66%
- Activity [5]: 9.85%
- Activity [6]: 2.22%
- IC50 [7]: 62.9 nM
- Activity [8]: 61.59%
- IC50 [9]: 43.6 nM
- Activity [10]: 18.21%
- IC50 [11]: 20.9 nM

SMILES: COc1ccc(C(=O)/C=C/c2c(OC)cc(OC)cc2OC)c(F)c1
- IC50 [7]: > 100000 nM
- IC50 [9]: > 100000 nM
- IC50 [11]: > 100000 nM

SMILES: COc1cc(/C=C/C(=O)c2ccc(OC)cc2F)cc(OC)c1
- IC50 [7]: 243 nM
- IC50 [9]: 101 nM
- IC50 [11]: 55.3 nM

SMILES: COc1ccc(C(=O)/C=C/c2cc(OC)c(OC)cc2OC)c(F)c1
- IC50 [7]: > 100000 nM
- IC50 [9]: 202 nM
- IC50 [11]: 72.2 nM

SMILES: COc1ccc(C(=O)/C=C/c2ccc(OC)cc2OC)c(F)c1
- IC50 [7]: 260 nM
- IC50 [9]: > 100000 nM
- IC50 [11]: 72.2 nM

SMILES: COc1ccc(C(=O)/C=C/c2cc(OC)c(OC)c(OC)c2)c(F)c1
- IC50 [7]: 144 nM
- IC50 [9]: 108 nM
- IC50 [11]: 50.5 nM

SMILES: COc1ccc(C(=O)/C=C/c2ccc(OC)c(OC)c2OC)c(F)c1
- IC50 [7]: 211 nM
- IC50 [9]: 108 nM
- IC50 [11]: 31.7 nM

SMILES: COc1ccc(/C=C/C(=O)c2ccccc2F)c(OC)c1
- Activity [1]: 22.61%
- Activity [2]: 29.37%
- Activity [3]: 56.9%
- Activity [4]: 5.64%
- Activity [5]: 59.98%
- Activity [6]: 6.18%
- IC50 [7]: 175 nM
- Activity [8]: 20.48%
- IC50 [9]: 87.3 nM
- Activity [10]: 12.64%
- IC50 [11]: 55.9 nM

SMILES: COc1cc(OC)c(OC)cc1/C=C/C(=O)c1ccccc1F
- IC50 [7]: 293 nM
- IC50 [9]: 79 nM
- IC50 [11]: 55.3 nM

SMILES: COc1ccc(OC)c(/C=C/C(=O)c2ccccc2F)c1
- Activity [1]: 7.9%
- Activity [2]: 27.52%
- Activity [3]: 35.28%
- Activity [4]: 1.36%
- Activity [5]: 89.78%
- Activity [6]: 16.84%
- IC50 [7]: 96.1 nM
- Activity [8]: 20.31%
- IC50 [9]: 114 nM
- Activity [10]: 0.94%
- IC50 [11]: 61.1 nM

SMILES: COc1cc(OC)c(/C=C/C(=O)c2ccccc2F)c(OC)c1
- IC50 [7]: 50.6 nM
- IC50 [9]: > 100000 nM
- IC50 [11]: 79 nM

SMILES: COc1cc(/C=C/C(=O)c2ccccc2F)cc(OC)c1OC
- IC50 [7]: 228 nM
- IC50 [9]: > 100000 nM
- IC50 [11]: 134 nM

SMILES: COc1cccc2c1C(=O)c1c(O)c3c(c(O)c1C2=O)C[C@@](O)(C(=O)CO)C[C@@H]3O[C@H]1C[C@H](N)[C@H](O)[C@H](C)O1.Cl [DOXORUBICIN HYDROCHLORIDE]
- Activity [12]: 55.74%
- Activity [13]: 0.98%
- Activity [14]: 36.19%
- Activity [15]: 1.34%
- Activity [16]: 61.55%
- Activity [17]: 30.86%
